Measurements as given in publication PMC6770510, “In Vitro Production and Identification of Angiotensin Converting Enzyme (ACE) Inhibitory Peptides Derived from Distilled Spent Grain Prolamin Isolate” (Foods, 2019).
Residues, ends and D or L forms follow the SMILES beside them.

target: T1, angiotensin converting enzyme (ACE) (Homo sapiens, UniProt P12821); test: ACE inhibitory activity, colorimetric detection system (ACE kit-WST); assay type: biochemical; conditions: synthetic peptides; mean ± SD, n = 3; read-out: IC50 (μM) for ACE of corresponding synthetic peptides
T1 construct: purchased Dojindo Inc., Kumamoto, Japan ACE kit-WST
Protocol: The ACE inhibitory activity was determined following the method as previously described, using the colorimetric detection system (ACE kit-WST, Dojindo Inc., Kumamoto, Japan). The assay procedure was consistent with the technical manual provided by the assay kit. Briefly, 20 µL of sample solution was added to a sample well, and 20 µL of deionized water was added to blank 1 and blank 2 wells. 20 µL of substrate buffer was added to each well. 20 µL of deionized water was added to blank 2 well, while 20 µL of enzyme working solution was added to each sample and blank 1 wells. All wells containing above solutions were incubated at 37 °C for 1 h. Afterwards, 200 µL of the indicator working solution was added to each well with further incubation for 10 min. Then, the absorbance was recorded at 450 nm using a microplate reader (Cytation 3, BioTek Instruments, Inc., Winooski, VT, USA). The ACE inhibitory activity was calculated using the equation (1) ACE inhibitory activity (inhibition rate %) = Ablank1− Asample/Ablank1− Ablank2 × 100% where Ablank1 represented positive control (without ACE inhibition); Ablank2 was the absorbance of the reagent blank, while Asample was the absorbance of the sample. The concentration inducing 50% inhibition (IC50) of peptides and some samples were also determined with non-linear regression.

T1 sequence (P12821 30-1306, species assumed): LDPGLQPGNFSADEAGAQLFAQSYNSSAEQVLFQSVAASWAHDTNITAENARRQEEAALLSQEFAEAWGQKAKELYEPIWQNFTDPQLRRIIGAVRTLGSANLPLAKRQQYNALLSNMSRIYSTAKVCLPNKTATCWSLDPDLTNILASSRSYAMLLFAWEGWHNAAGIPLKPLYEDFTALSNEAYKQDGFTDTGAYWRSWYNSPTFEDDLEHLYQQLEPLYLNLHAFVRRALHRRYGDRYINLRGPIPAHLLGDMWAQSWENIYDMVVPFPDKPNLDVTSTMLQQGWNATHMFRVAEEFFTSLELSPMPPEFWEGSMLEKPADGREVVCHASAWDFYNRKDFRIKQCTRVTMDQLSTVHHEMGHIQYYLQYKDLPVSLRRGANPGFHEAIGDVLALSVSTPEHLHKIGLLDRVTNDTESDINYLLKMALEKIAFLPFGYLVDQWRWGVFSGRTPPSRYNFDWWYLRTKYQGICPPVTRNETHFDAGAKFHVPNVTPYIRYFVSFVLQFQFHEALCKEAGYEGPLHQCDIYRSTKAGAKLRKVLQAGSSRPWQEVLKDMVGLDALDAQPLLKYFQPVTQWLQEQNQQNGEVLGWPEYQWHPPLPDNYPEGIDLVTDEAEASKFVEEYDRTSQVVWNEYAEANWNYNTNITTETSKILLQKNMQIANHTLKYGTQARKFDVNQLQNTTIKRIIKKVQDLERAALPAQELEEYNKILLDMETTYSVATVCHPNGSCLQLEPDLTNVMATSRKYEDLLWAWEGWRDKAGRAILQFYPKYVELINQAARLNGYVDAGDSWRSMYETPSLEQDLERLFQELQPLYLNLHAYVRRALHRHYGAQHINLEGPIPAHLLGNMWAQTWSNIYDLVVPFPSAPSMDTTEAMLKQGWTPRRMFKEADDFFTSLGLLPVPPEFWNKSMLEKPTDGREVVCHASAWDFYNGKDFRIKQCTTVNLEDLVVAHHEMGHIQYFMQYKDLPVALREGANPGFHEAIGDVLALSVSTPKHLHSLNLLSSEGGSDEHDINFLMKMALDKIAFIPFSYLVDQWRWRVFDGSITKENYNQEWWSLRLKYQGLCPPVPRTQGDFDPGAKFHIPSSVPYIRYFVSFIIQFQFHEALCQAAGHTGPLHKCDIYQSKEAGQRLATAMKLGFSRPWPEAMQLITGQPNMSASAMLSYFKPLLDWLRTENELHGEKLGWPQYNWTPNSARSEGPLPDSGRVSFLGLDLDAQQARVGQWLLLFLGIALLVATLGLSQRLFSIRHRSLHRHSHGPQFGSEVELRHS

Point of comparison: `CC(C)[C@H](NC(=O)[C@H](C)N)C(=O)N[C@@H](CCC(N)=O)C(=O)O` [AVQ] (H-Ala-Val-Gln-OH), IC50 181 ± 6.17 µM. Against it:
- CC(C)C[C@H](NC(=O)[C@H](Cc1ccc(O)cc1)NC(=O)[C@H](C)N)C(=O)N[C@@H](CCC(N)=O)C(=O)O [AYLQ] (H-AYLQ-OH) — within 1.5-fold, 229 ± 9.63 µM
- CC(C)C[C@H](NC(=O)[C@H](CCC(N)=O)NC(=O)[C@@H](N)CC(N)=O)C(=O)O [NQL] (H-Asn-Gln-Leu-OH) — 3.9-fold higher, 705 ± 16.1 µM
- NC(=O)CC[C@H](NC(=O)[C@@H]1CCCN1C(=O)[C@@H](N)Cc1ccc(O)cc1)C(=O)O [YPQ] (H-Tyr-Pro-Gln-OH) — within 1.5-fold, 220 ± 9.56 µM
- CC(C)C[C@H](NC(=O)[C@@H](NC(=O)[C@@H]1CCCN1C(=O)[C@H](CC(C)C)NC(=O)[C@@H](N)C(C)C)C(C)C)C(=O)N[C@@H](CO)C(=O)O [VLPVLS] (H-VLPVLS-OH) — within 1.5-fold, 248 ± 7.15 µM
- CC(C)C[C@H](NC(=O)[C@H](CO)NC(=O)[C@@H]1CCCN1C(=O)[C@H](CC(C)C)NC(=O)[C@@H](N)C(C)C)C(=O)N[C@@H](CC(N)=O)C(=O)O [VLPSLN] (H-VLPSLN-OH) — 6.9-fold higher, 1246 ± 9.92 µM
